The values below come from patent publication US7235377B2, “Global test of the hemostatic system” (The University of Vermont and State Agriculture College, priority 2003, dated 2007).

Assay [1] has as its system whole blood. Put plainly: Tissue factor initiated whole blood assay, thrombin (TAT) at 20 minutes, historical record of treated individuals/blood. Details: species or system human.
Assay [2] can be described thus: INR of individuals on coumadin therapy. Type of assay: in vivo, human. The method, then:
Thrombin is illustrated for the group of 13 healthy individuals (♦/⋄, column 1), with the 6-month time period for subject 10 (⋄) illustrated. […] An historical record of whole blood data for individuals on coumadin therapy (●/∘) is seen in column 3. […] Individuals with hemophilia A; or induced hemophilia B; with (Δ) and without (▴) in vitro replacement were reevaluated for their 20 minute time point and are seen in column 4. Two individuals with factor XI deficiency (▪) at low tissue factor are shown in column 5. Thrombin generation from blood treated with anti platelet IIbIIIa therapeutics (*), ReoPro and Integrellin are represented in column 6.

Setting [3] is: one individual on coumadin therapy over a 6 month time period.

`CC(=O)CC(c1ccccc1)c1c(O)c2ccccc2oc1=O` (stereo not drawn) [Coumadin]: the “TAT level, Mean” value in assay [1] (mean per group, repeated measures on individuals averaged, 20 min) is 273.5. Moreover, in assay [1] (setting [3]), the mean thrombin amounted to 166.6 ± 121.3 nM and the “variation of thrombin levels” value is “approximately 325 nM”. In assay [1] (one individual on coumadin therapy, stable INR, studied 10 times over 6 months, 20 min), the “thrombin levels (range)” value was 9.3 to 334.7 nM. Also, the INR in assay [2] (group of 7 individuals stably anticoagulated on coumadin, studied once) was found to be 2.3±0.5. This molecule also returned an INR in assay [2] (one individual on coumadin therapy studied 10 times over 6 months) of 2.1±0.4.
